Laboratory results reported in patent US20260276660A1, “DETERMINATION OF PROGESTOGENS NON-INVASIVELY IN ANIMALS” (Vetcare Oy, priority 2023, published 2026).

The molecules below were run on Monoclonal mouse 5α-PtG antibody (assay: Cross-reactivity of monoclonal 5α-PtG antibody (enzyme immunoassay)). Details: monoclonal mouse 5α-PtG antibody raised against 5α-PtG-KLH.
Assay type: binding
Experimental: Monoclonal mouse 5α-PtG antibody was raised against the 5α-PtG-KLH by Thermo Fisher Scientific (Rockford, TL, USA). The antibodies were screened against the 5α-PtG-BSA. Cross-reactivities for the antibody were: 100% 5α-pregnane-3β,6α,20β-triol glucuronide, 25.4% 5α-pregnane-3β,6α,20β-triol, 0.5% 5β-pregnane-3α,20β-diol and 0.5% 5α-pregnane-3β,6α-diol-20-one.
The 96 well polystyrene, certified MaxiSorp® plates were coated with antigen (5α-PtG-cBSA) by adding 100 μl of 0.25 μg/ml antigen in coating buffer (0.01 M sodium bicarbonate, pH 9.5) in each well. The plates were covered with plastic sticker to prevent evaporation, protected from light and incubated at room temperature over night or several nights at +4° C. The wells were emptied and washed once with 250 μl general washing buffer (e.g. PBS with 0.05% Tween 20 (PBST)), filled with 200 μl blocking buffer (5% sucrose and 0.5% BSA in PBST (w/V)), covered and incubated at +37° C. for a half an hour. The plates were poured empty and dried for three hours at +37° C. Dried plates were covered with plastic sticker, packed in re-sealable plastic bags with silica beads and stored at +4° C. until use.
The hormone assays were performed from the individual samples collected in different oestrus cycle phases and from the urine sample series from 60 bitches. The 5α-PtG-cBSA coated plates were washed once with 250 μl of PBST. The urine samples were diluted 1:20 in assay buffer (0.2% BSA (w/V) in PBS with 0.01% Triton-X) and added in sample wells (50 μl). A dilution series of standard was prepared by diluting the 5α-PtG in assay buffer and added to standard wells (50 μl; 1200-1.6 nM). Assay buffer without additives was added to two wells to determine the maximum binding capacity (B0) and 1900 nM 5α-PtG control was diluted 1:20 in assay buffer and used as a recovery control in all assays. All samples and standards were measured as two replicates. The stock dilution of monoclonal mouse 5α-PtG antibody (1:100) was further diluted 1:100 in assay buffer and added 50 μl in each well. The plate was covered and incubated at +37° C. for half an hour, followed by washing the plate three times. Horseradish peroxidase labeled secondary antibody (goat anti-mouse IgG HRP) was diluted in 1:20 000 in 0.5% BSA (w/V) in PBST, added 100 μl per well and incubated half an hour at +37° C. After washing the plate three times with PBST, TMB in DMSO solution (0.5% 3,3′,5,5′-tetramethylbenzidine in dimethylsulfoxide (w/V; TCIAT1023 Tokyo Chemical Industry)) was diluted 1:50 in substrate buffer (0.1 M sodium acetate trihydrate, 1.5 mM citric acid monohydrate, 0.005% hydrogen peroxide (30%)), added in each well (100 μl) and incubated at room temperature 30 minutes. The reaction was stopped by adding 50 μl 1 M sulfuric acid to each well. The absorbance was measured at 450 nm by microplate reader (Hidex Sense).

| Structure (SMILES) | Cross-reactivities for the antibody |
| --- | --- |
| CC(=O)[C@H]1CC[C@H]2[C@@H]3CCC4=CC(=O)CC[C@]4(C)[C@H]3CC[C@]12C [progesterone, pregn-4-ene-3,20-dione] | No cross-reactivities |
| C[C@@H](O)[C@@]1(O)CCC2C3CC[C@H]4C[C@@H](O)CC[C@]4(C)C3CC[C@@]21C (stereo partly drawn) [5α-pregnane-3β,17α,20β-triol] | No cross-reactivities |
| CC(O)C1(O)CCC2C3CCC4CC(O)CCC4(C)C3CCC21C (stereo not drawn) [5β-pregnane-3α,17α,20β-triol] | No cross-reactivities |
| CC(=O)[C@H]1CC[C@H]2[C@@H]3C[C@H](O)[C@H]4C[C@@H](O)CC[C@]4(C)[C@H]3CC[C@]12C [5α-pregnane-3β,6α-diol-20-one] | 0.5% |
| C[C@H](O)[C@H]1CC[C@H]2[C@@H]3C[C@H](O)[C@H]4C[C@@H](O)CC[C@]4(C)[C@H]3CC[C@]12C [5α-pregnane-3β,6α,20α-triol] | No cross-reactivities |
| C[C@H](O)[C@H]1CC[C@H]2[C@@H]3CC[C@@H]4C[C@H](O)CC[C@]4(C)[C@H]3CC[C@]12C [5β-pregnane-3α,20α-diol] | No cross-reactivities |
| C[C@H](O)[C@@]1(O)CC[C@H]2[C@@H]3CC[C@@H]4C[C@H](O)CC[C@]4(C)[C@H]3CC[C@@]21C [5β-pregnane-3α,17α,20α-triol] | No cross-reactivities |
| C[C@@H](O)[C@H]1CC[C@H]2[C@@H]3CC[C@@H]4C[C@H](O)CC[C@]4(C)[C@H]3CC[C@]12C [5β-pregnane-3α,20β-diol] | 0.5% |
| C[C@@H](O)[C@H]1CC[C@H]2[C@@H]3C[C@H](O)[C@H]4C[C@@H](O)CC[C@]4(C)[C@H]3CC[C@]12C [5α-pregnane-3β,6α,20β-triol] | 25.4% |
| C[C@@H](O)[C@H]1CC[C@H]2[C@@H]3C[C@H](O[C@@H]4O[C@H](C(=O)O)[C@@H](O)[C@H](O)[C@H]4O)[C@H]4C[C@@H](O)CC[C@]4(C)[C@H]3CC[C@]12C [5α-PtG, 5α-pregnane-3β,6α,20β-triol-6-O-β-D-glucuronide] | 100% |
| C[C@H](O)[C@H]1CC[C@H]2[C@@H]3CC[C@@H]4C[C@H](O[C@@H]5O[C@H](C(=O)O)[C@@H](O)[C@H](O)[C@H]5O)CC[C@]4(C)[C@H]3CC[C@]12C [PdG, 5β-pregnane-3α,20α-diol-3-glucuronide] | No cross-reactivities |

These molecules were tested on hepatic S9 enzymes (assay: In vitro metabolism of progesterone by hepatic S9). Details: after one hour with ovarian S9, hepatic S9 added.
Assay type: in vitro ADME, dog

| Structure (SMILES) | change of 17α-OHP when hepatic S9 were added |
| --- | --- |
| CC(=O)[C@@]1(O)CC[C@H]2[C@@H]3CCC4=CC(=O)CC[C@]4(C)[C@H]3CC[C@@]21C [17α-OHP, 17α-hydroxyprogesterone] | decreased significantly |

Same assay, conditions: dog, 50 µg/mL

| Structure (SMILES) | hydroxyprogesterones produced from progesterone |
| --- | --- |
| CC(=O)[C@H]1CC[C@H]2[C@@H]3CCC4=CC(=O)CC[C@]4(C)[C@H]3CC[C@]12C [progesterone, pregn-4-ene-3,20-dione] | higher amounts of 6α-, 6β- and 16α-hydroxyprogesterones were detected |
